ChEMBL document CHEMBL4359871, “Novel electrophilic amides amenable by the Ugi reaction perturb thioredoxin system via thioredoxin reductase 1 (TrxR1) inhibition: Identification of DVD-445 as a new lead compound for anticancer therapy” (Eur J Med Chem, 2019)
Activity calls are given as the source filed them. The rule behind the calls is not given here.

Legend:
[1] = tested on: HaCaT; test: Cytotoxicity against human HaCaT assessed as reduction in cell viability incubated for 72 hrs by MTT assay; format: cell-based
[2] = tested on: SH-SY5Y; test: Induction of apoptosis in human SH-SY5Y cells assessed as necrotic cells incubated for 48 hrs by annexin V FITC and propidium iodide staining based flow cytometry (reference value: 5.75 %); format: functional
[3] = tested on: U-87 MG; test: Induction of ROS generation in human U87 cells incubated for 24 hrs by DHE staining based flow cytometry; format: functional, cell-based; conditions: U-87MG ATCC
[4] = target: T1, Thioredoxin reductase 1, cytoplasmic (Rattus norvegicus) (UniProt O89049); test: […] inhibition of rat TrxR1 using DTNB as substrate preincubated for 15 mins in presence of NADPH followed by substrate addition and measured for 20 mins by Ellman's method
T1 sequence (whole entry): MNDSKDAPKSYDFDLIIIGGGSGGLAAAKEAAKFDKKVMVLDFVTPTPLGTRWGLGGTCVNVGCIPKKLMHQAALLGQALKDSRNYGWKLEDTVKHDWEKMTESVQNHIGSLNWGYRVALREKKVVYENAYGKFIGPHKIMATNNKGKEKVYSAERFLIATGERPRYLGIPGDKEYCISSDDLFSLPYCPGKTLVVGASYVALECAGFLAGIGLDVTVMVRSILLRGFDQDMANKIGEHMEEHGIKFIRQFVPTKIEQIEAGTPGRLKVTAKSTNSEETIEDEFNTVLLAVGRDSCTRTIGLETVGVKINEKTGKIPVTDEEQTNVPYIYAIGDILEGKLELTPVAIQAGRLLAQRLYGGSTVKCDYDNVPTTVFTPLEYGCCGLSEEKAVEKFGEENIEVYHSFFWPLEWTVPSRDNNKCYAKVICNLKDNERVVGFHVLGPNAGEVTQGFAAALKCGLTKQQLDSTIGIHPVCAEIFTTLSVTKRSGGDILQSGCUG

[5] = tested on: SH-SY5Y; test: Cytotoxicity against human SH-SY5Y cells assessed as reduction in cell viability incubated for 72 hrs by MTT assay; format: functional, cell-based
[6] = tested on: PBMC; test: Cytotoxicity against human PBMC assessed as reduction in cell viability incubated for 72 hrs by MTT assay; format: cell-based
[7] = tested on: SH-SY5Y; test: Induction of RNS generation in human SH-SY5Y cells incubated for 24 hrs by DHR staining based flow cytometry; format: functional
[8] = tested on: HaCaT; test: Induction of ROS generation in human HaCaT cells incubated for 24 hrs by DHE staining based flow cytometry; format: cell-based
[9] = tested on: SH-SY5Y; test: Induction of apoptosis in human SH-SY5Y cells assessed as viable cells incubated for 48 hrs by annexin V FITC and propidium iodide staining based flow cytometry (reference value: 92.44 %); format: functional
[10] = tested on: HaCaT; test: Induction of apoptosis in human HaCaT cells assessed as early apoptotic cells incubated for 48 hrs by annexin V FITC and propidium iodide staining based flow cytometry (reference value: 0.02 %); format: cell-based
[11] = tested on: SH-SY5Y; test: Induction of ROS generation in human SH-SY5Y cells incubated for 24 hrs by DHE staining based flow cytometry; format: functional, cell-based
[12] = tested on: SH-SY5Y; test: Induction of apoptosis in human SH-SY5Y cells assessed as late apoptotic cells incubated for 48 hrs by annexin V FITC and propidium iodide staining based flow cytometry (reference value: 1.37 %); format: functional
[13] = target: T2, Thioredoxin reductase 1, cytoplasmic (Rattus norvegicus, UniProt O89049); test: Inhibition of rat TrxR1 using DTNB as substrate preincubated for 15 mins followed by substrate addition and measured for 20 mins by Ellman's method
T2 sequence (O89049 whole entry): T1 sequence (whole entry)

[14] = tested on: U-87 MG; test: Induction of RNS generation in human U87 cells incubated for 24 hrs by DHR staining based flow cytometry; format: functional, cell-based; conditions: U-87MG ATCC
[15] = tested on: U-87 MG; test: Cytotoxicity against human U87 cells assessed as reduction in cell viability incubated for 72 hrs by MTT assay; format: functional, cell-based, U-87MG ATCC
[16] = target: T3, Thioredoxin reductase 1, cytoplasmic (Homo sapiens, UniProt Q16881); test: Inhibition of TrxR in human SH-SY5Y cells using DTNB as substrate preincubated for 15 mins followed by substrate addition and measured for 20 mins by Ellman's method; format: cell-based
T3 sequence (Q16881 whole entry): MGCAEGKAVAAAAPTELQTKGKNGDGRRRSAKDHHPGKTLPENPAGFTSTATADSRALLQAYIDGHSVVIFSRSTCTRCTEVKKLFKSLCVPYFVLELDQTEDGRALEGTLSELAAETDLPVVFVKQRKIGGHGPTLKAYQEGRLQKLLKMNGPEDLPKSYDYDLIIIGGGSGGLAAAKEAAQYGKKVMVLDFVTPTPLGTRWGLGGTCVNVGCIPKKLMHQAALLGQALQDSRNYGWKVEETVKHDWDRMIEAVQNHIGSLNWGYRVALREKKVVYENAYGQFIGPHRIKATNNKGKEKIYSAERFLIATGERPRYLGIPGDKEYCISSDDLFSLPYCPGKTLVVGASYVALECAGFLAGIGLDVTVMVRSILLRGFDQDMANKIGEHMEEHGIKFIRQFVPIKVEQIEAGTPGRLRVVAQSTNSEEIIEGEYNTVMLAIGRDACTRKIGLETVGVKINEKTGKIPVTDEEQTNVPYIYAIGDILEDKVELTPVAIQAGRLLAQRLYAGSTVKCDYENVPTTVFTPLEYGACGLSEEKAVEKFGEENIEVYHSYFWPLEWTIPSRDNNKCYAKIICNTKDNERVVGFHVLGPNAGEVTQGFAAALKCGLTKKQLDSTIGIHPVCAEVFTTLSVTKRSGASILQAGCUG

[17] = tested on: HaCaT; test: Induction of apoptosis in human HaCaT cells assessed as late apoptotic cells incubated for 48 hrs by annexin V FITC and propidium iodide staining based flow cytometry (reference value: 0.46 %); format: cell-based
[18] = tested on: SH-SY5Y; test: Induction of apoptosis in human SH-SY5Y cells assessed as early apoptotic cells incubated for 48 hrs by annexin V FITC and propidium iodide staining based flow cytometry (reference value: 0.44 %); format: functional
[19] = target: T3, Thioredoxin reductase 1, cytoplasmic; test: Inhibition of TrxR1 (unknown origin) using DTNB as substrate preincubated for 30 mins in presence of insulin followed by substrate addition by colorimetry
[20] = Induction of apoptosis in human HaCaT cells assessed as viable cells incubated for 48 hrs by annexin V FITC and propidium iodide staining based flow cytometry (reference value: 95.78 %); format: cell-based; conditions: read-out: Activity
[21] = tested on: HaCaT; test: Induction of apoptosis in human HaCaT cells assessed as necrotic cells incubated for 48 hrs by annexin V FITC and propidium iodide staining based flow cytometry (reference value: 2.74 %); format: cell-based
[22] = tested on: HaCaT; test: Induction of RNS generation in human HaCaT cells incubated for 24 hrs by DHR staining based flow cytometry; format: cell-based

SMILES | IC50 [1] | Activity [2] | Activity [3] | inhibition [4] | IC50 [5] | IC50 [6] | Activity [7] | Activity [8] | Activity [9] | Activity [10] | Activity [11] | Activity [12] | IC50 [13] | Activity [14] | IC50 [15] | IC50 [16] | Activity [17] | Activity [18] | IC50 [19] | viability at 48 h [20] | further results
COc1ccc(C(C(=O)NC(C)(C)C)N(C(=O)/C=C/C(=O)c2ccc(C)cc2)C(C)C)cc1 (configuration not stated) | 0.83 µM | 25.8% | inactive | Active | 0.9 µM | 2.1 µM | >=30% | Non-Toxic | 71.35% | 0.22% | inactive | 2.14% | 1.74 µM | inactive | 0.46 µM | 16 µM | 2.92% | 0.71% | 0.76 µM | 78.8% | Activity [21]: 18.16%; Activity [22]: Non-Toxic
Cc1ccc(C(=O)C[C@H]2C(=O)N(C3CCCCC3)[C@H](c3cccnc3)C(=O)N2Cc2ccccc2)cc1 (racemic) |  |  |  |  |  |  |  |  |  |  |  |  |  |  |  | > 200 µM |  |  |  |  | 
Cc1ccc(C(=O)/C=C/C(=O)N(C2CC2)C(C(=O)NCc2ccccc2)c2ncc(C)cn2)cc1 (configuration not stated) | 5.45 µM | 14.54% | inactive | Active | 4.94 µM | 15.3 µM | inactive | Non-Toxic | 81.45% | 0.07% | inactive | 2.91% | 4.2 µM | inactive | 15.2 µM | 31.8 µM | 1.06% | 1.1% | 6.61 µM | 91.7% | Activity [21]: 7.18%; Activity [22]: Non-Toxic
CCCCN(C(=O)/C=C/C(=O)c1ccc(F)cc1)C(C(=O)NCc1ccccc1)C(C)(C)C (configuration not stated) |  |  |  |  |  |  |  |  |  |  |  |  |  |  |  | 30.5 µM |  |  |  |  | 
CCCN(C(=O)/C=C/C(=O)c1ccc(C)cc1)C(C(=O)NC1CCCCC1)c1ccc(C)cc1 (configuration not stated) |  |  |  |  |  |  |  |  |  |  |  |  |  |  |  | 81.6 µM |  |  |  |  | 
COc1ccc(C(C(=O)NC(C)(C)C)N(C(=O)/C=C/C(=O)c2ccc(C)cc2)C2CC2)cc1OC (configuration not stated) |  |  |  |  |  |  |  |  |  |  |  |  |  |  |  | 76.6 µM |  |  |  |  | 
CN(CCOC(=O)/C=C/C(=O)c1ccc(F)cc1)C(C(=O)NC(C)(C)C)c1ccc(F)cc1 (configuration not stated) | 8.3 µM | 14.96% | inactive | Active | 11 µM | 55.7 µM | inactive | Non-Toxic | 75.74% | 0.03% | inactive | 6.73% | 0.6 µM | inactive | 9.7 µM | 7.26 µM | 0.83% | 2.57% | 0.96 µM | 93.9% | Activity [21]: 5.21%; Activity [22]: Non-Toxic
COc1ccccc1C(C(=O)NC1CCCCC1)N(C(=O)/C=C/C(=O)c1ccc(C)cc1)C1CCCCC1 (configuration not stated) | 1.56 µM | 41.62% | inactive | Active | 1.77 µM | 1.62 µM | >=30% | Non-Toxic | 57.22% | 0.07% | inactive | 0.92% | 3.12 µM | inactive | 1.41 µM | 51.2 µM | 1.15% | 0.25% | 5.28 µM | 89.1% | Activity [21]: 9.65%; Activity [22]: Non-Toxic
CC(C)(C)NC(=O)C(c1ccc(F)cc1)N(C(=O)/C=C/C(=O)c1ccc(F)cc1)C1CC1 (configuration not stated) | 1.06 µM | 11.11% | inactive | Active | 0.56 µM | 5.6 µM | inactive | Non-Toxic | 86.76% | 0.07% | inactive | 1.54% | 0.93 µM | inactive | 0.8 µM | 17.4 µM | 0.77% | 0.6% | 0.82 µM | 94% | Activity [21]: 5.21%; Activity [22]: Non-Toxic
Cc1ccc(C(=O)/C=C/C(=O)N(C2CC2)C(C(=O)NC2CCCCC2)c2ccc(F)cc2)cc1 (configuration not stated) |  |  |  |  |  |  |  |  |  |  |  |  |  |  |  | 29.3 µM |  |  |  |  | 
COc1cc(/C=C/C(=O)N2CCC=CC2=O)cc(OC)c1OC [PIPLARTINE] | 3.03 µM |  |  |  | 5.94 µM |  |  |  |  |  |  |  |  |  | 7.18 µM |  |  |  |  |  | 
COc1cc(C(C(=O)NC(C)(C)C)N(CCC(C)C)C(=O)/C=C/C(=O)c2ccc(F)cc2)cc(OC)c1OC (configuration not stated) | 1.05 µM | 61.97% | inactive | Active | 2.96 µM | 7.29 µM | >=30% | Non-Toxic | 37.57% | 0.14% | inactive | 0.39% | 1.25 µM | inactive | 2.92 µM | 8.58 µM | 5.06% | 0.07% | 2.51 µM | 65.3% | Activity [21]: 29.45%; Activity [22]: Non-Toxic
COc1ccc(C(C(=O)NC2CCCCC2)N(CC(C)C)C(=O)/C=C/C(=O)c2ccc(C)cc2)cc1 (configuration not stated) |  |  |  |  |  |  |  |  |  |  |  |  |  |  |  | > 200 µM |  |  |  |  | 
Cc1ccc(C(=O)/C=C/C(=O)N(CC(C)C)C(C(=O)NC(C)(C)C)C(C)(C)C)cc1 (configuration not stated) |  |  |  |  |  |  |  |  |  |  |  |  |  |  |  | > 200 µM |  |  |  |  | 
